Data: US11439615B2, “Lipoxin and lipoxin analogue mediated neuroprotection and treatments” (University Health Network, priority 2017, dated 2022)

Tests used:
HT22 cells [1] = experiment: Glutamate challenge of HT22 neuronal cells, viability; format: cell-based; conditions: for protective activity of related molecules: up to 1 μM, glutamate challenged HT22 cells
Description: An in vitro assay to recapitulate key aspects of the acute KA model was established. In this case, unconcentrated ACM was applied to the glutamate sensitive neuronal cell line HT22 (66, 67). Glutamate challenge of 5 mM was titrated to induce 60-80% cell death (ie: 20-40% survival). […] The media was concentrated for proteomic analyses.
LXA4 and LXB4 promote direct neuroprotective signaling. To the inventor's knowledge, a role for lipoxins as direct neuroprotective or neurotrophic factors has not been reported. Although their established anti-inflammatory actions extend to the CNS (29-32). However, it was hypothesized they may have indirect protective effects. In order to test whether the protective activity was direct or indirect, LXA4 or LXB4 was applied to neuronal cells in an established in vitro assay.
There is no established receptor for LXB4. However, LXB4 shares structural homology with LXA4 and the DHA-derived resolving D2 (RvD2), which mediate their actions via FPR2 or GPR18 (74), respectively. Therefore, it was assessed whether specific receptor antagonists for FPR2 or GPR18 could block LXB4 mediated protection.
As shown in FIG. 14 lipoxin neuroprotection is dose responsive. Dose responses were generated for LXA4 (open circles) and LXB4 (closed circles) in HT22 cells exposed to glutamate stress, followed by nonlinear regression analyses.

primary cortical neurons = experiment: Primary cortical neurons under paraquat oxidative stress, neuron number; format: cell-based; conditions: n=5
From the text: Quantification of neuron number following oxidative stress from the redox cycling compound paraquat in primary cortical neurons.

HT22 cells [2] = experiment: Mitosox mitochondrial oxidative stress in glutamate challenged HT22 cells; format: cell-based; conditions: 1 μM, HT22 cells challenged with glutamate, vs vehicle
Description: HT22 cells challenged with glutamate were then assayed for mitochondrial oxidative stress using the Mitosox reagent, in combination with 1 μM LXA4, LXB4, and the LXA4 receptor ALX/FPR2 agonists Quinc-1 and Mmk-1.

[3] = tested on: retinal ganglion cell neurons (RGCs); experiment: Mouse acute retinal insult model (intravitreal kainic acid), RGC survival / GCL apoptosis; format: in vivo
Description: Male C57BLL/6 mice, 4-6 weeks of age, were purchased from Taconic or Jackson labs. All experimental protocols were approved by the UHN and UC Berkeley ACUC in accordance with applicable regulations. Mice were anesthetized by intraperitoneal injection of ketamine/xylazine. Intravitreal injections with 10 mM kainic acid (KA) were performed as previously described (45). Briefly, a 30-gauge needle was inserted tangentially into the vitreous and replaced with a Hamilton syringe to inject a volume of 2 μL, followed by application of ophthalmic antibiotic ointment (BNP, Vetoquinol). In some experiments, 10× concentrated ACM or test compounds were injected intravitreally one hour prior to the KA injection in concentrations as follows: LXA4 and LXB4 at 10 μM, Zileuton at 2 μg/ul, and WRW4 at 15 μM, all dissolved in PBS. Mice were euthanized by CO2 asphyxiation 18 hours post KA treatment and the eyes fixed in 4% paraformaldehyde. In all experiments n refers to the number of animals tested.
To quantify the extent of apoptosis, a well-established method was used to count the number of TUNEL-positive nuclei in the ganglion cell layer (GCL) and expressed it as a fraction of the total GCL nuclei (50-54). TUNEL labeling was performed according to the manufacturer's instructions (DeadEnd; Promega). Briefly, cryostat sections were fixed with 4% PFA for 5 minutes and washed in PBS. Equilibration buffer was added, and rTdT reaction mix was applied to each slide and incubated at 37° C. for 60 min. Following the rTdT reaction, slides were washed in 2×SSC and PBS and finally mounted with glycerol-based medium. For RGC survival, RBPMS-positive cells in the GCL were counted and expressed as a fraction of GCL nuclei. For each eye, at least five central retinal sections were analyzed at the level of the optic nerve stretching to each ora serrata, and the results averaged, as previously described (42).
In order to test the influence of the transplanted cells on inner retinal pathology, RA's were transplanted as above. After 16 days retinas were challenged with an acute metabolic injury by injection of kainic acid (KA). […]
Retinal astrocyte neuroprotection is mediated through secreted factors that include a small molecule component enriched in LXA4 and LXB4. […] This time, survival of RGCs was specifically assessed by probing for the selective marker RBPMS, along with complementary TUNEL staining, and quantified as previously. As expected, extensive RGC loss was detected in KA challenged eyes injected with cell-free control media incubated under the same conditions as ACM (FIG. 2A). […]

| SMILES | protective activity of related molecules (HT22 cells [1]) | neuron number following oxidative stress from paraquat (primary cortical neurons) | further results |
| --- | --- | --- | --- |
| CC/C=C\C[C@H](O)[C@H](O)/C=C/C=C/C=C\C=C\[C@@H](O)C/C=C\CCC(=O)O [RvD2, reference compound] | no protective activity | no protection | – |
| C=C(C)[C@@H]1CCC(C)=C[C@H]1c1c(OC)cc(C)cc1OC [O-1918, reference compound] | – | – | block of LXB4 protective activity by receptor antagonist (HT22 cells [1]; LXB4 at 500 nM, increasing μM concentrations of antagonist): did not block LXB4 protective activity |
| CCCCOc1ccc(C(=O)NN2C(=O)c3ccccc3NC2c2ccc(OC)cc2)cc1 (centres unmarked) [Quinc-1, reference compound] | – | – | mitochondrial oxidative stress (Mitosox) (HT22 cells [2]): reduce mitochondrial oxidative stress |
| CCCCC[C@H](O)/C=C/C=C\C/C=C\C/C=C\CCCC(=O)O [15-HETE, reference compound] | no protective activity | no protection | – |
| CC(c1cc2ccccc2s1)N(O)C(N)=O (centres unmarked) [Zileuton, reference compound] | – | – | exacerbation of RGC loss in response to KA challenge compared to vehicle ([3]; intravitreal inhibitor prior to KA, Zileuton 10 μM or 2 μg/ul, WRW4 15 μM): 60%; effect on RGC numbers, drug alone ([3]; uninjured (naive) eyes, intravitreal, no KA, RBPMS counts): no effect |
